Experimental data as given in patent publication US20250339569A1, “CARBONIC ANHYDRASE IX LIGANDS” (priority 2021, published 2025).
pIC50: −log10 of the molar value. Starred links: 1 amine or outer side, 2 acyl side, 3 side chain; linkers in the order of their positions; H or OH if unused. Positions of bridges follow the written chain, without caps; N, C: chain ends. Non-standard residues stand in square brackets, D forms with d. Residues, ends and D or L forms follow the SMILES beside them. *: point of attachment. DOTA = O=C(O)CN1CCN(CC(=O)O)CCN(CC(=O)*)CCN(CC(=O)O)CC1; Phe(4-tBu) = CC(C)(C)c1ccc(C[C@H](N)C(=O)O)cc1; Pyridine(2,6-diCH2) = c1cc(C[*:1])nc(C[*:2])c1; Pyridine(3,5-bisCH2) = c1ncc(C[*:2])cc1C[*:1]; Trp(7-aza) = N[C@@H](Cc1c[nH]c2ncccc12)C(=O)O; Bip = N[C@@H](Cc1ccc(-c2ccccc2)cc1)C(=O)O; Dip = N[C@H](C(=O)O)C(c1ccccc1)c1ccccc1; Phe(4-NH2) = Nc1ccc(C[C@H](N)C(=O)O)cc1; Cyclopentanecarbonyl = O=C(C1CCCC1)*; mXylylene = c1cc(C[*:1])cc(C[*:2])c1; X2 = O=C(CN1CCC(N[*:1])CC1)[*:2]; Dap = NC[C@H](N)C(=O)O; Bz = O=C(c1ccccc1)*; Bn = c1ccc(C*)cc1

target: T1, CAIX-expressing human HT-29 colorectal cancer cells (Homo sapiens, UniProt Q16790); assay: FACS binding assay (IC50 determination, competition with tracer 3BP-2776 or 3BP-4149); conditions: not given
T1 construct: CAIX-expressing human HT-29 colorectal cancer cells; host or cells: HT-29 human colorectal cancer cells
How it was run: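 HT-29 cells in FACS buffer (PBS, 1% FCS) at 500.000 cells/ml were exposed to compounds competing with a labelled tracer, with biotinylated compounds detected by 1 μg/mL APC-streptavidin for 30 min on ice. APC/Cy5 median fluorescence was read by flow cytometry and IC50 derived by 4PL fit.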

Compared with CC(C)C[C@@H]1NC(=O)[C@H](Cc2ccc(OCc3ccccc3)cc2)NC(=O)[C@H](CC(=O)O)NC(=O)[C@H]2CCCN2C(=O)[C@H](CCC(=O)O)NC(=O)[C@@H](NC(=O)[C@H](Cc2ccc(O)cc2)NC(=O)[C@@H](NC(=O)CN2CCC(NC(=O)CN3CCN(CC(=O)O)CCN(CC(=O)O)CCN(CC(=O)O)CC3)CC2)C(C)C)CSCc2cccc(c2)CSC[C@@H](C(N)=O)NC(=O)[C@H](CO)NC(=O)[C@H](Cc2c[nH]c3ccccc23)NC(=O)[C@H]([C@@H](C)O)NC1=O [3BP-4137] ({DOTA}-[X2]VYCE[dP]DY(Bn)LTWSC-NH2; linker 4-13 via mXylylene), CC(C)C[C@@H]1NC(=O)[C@H](Cc2ccc(NC(=O)c3ccccc3)cc2)NC(=O)[C@H](CC(=O)O)NC(=O)[C@H]2CCCN2C(=O)[C@H](CCC(=O)O)NC(=O)[C@@H](NC(=O)[C@H](Cc2ccc(O)cc2)NC(=O)[C@@H](NC(=O)CN2CCC(NC(=O)CN3CCN(CC(=O)O)CCN(CC(=O)O)CCN(CC(=O)O)CC3)CC2)C(C)C)CSCc2cccc(c2)CSC[C@@H](C(N)=O)NC(=O)[C@H](CO)NC(=O)[C@H](Cc2c[nH]c3ccccc23)NC(=O)[C@H]([C@@H](C)O)NC1=O [3BP-4171] ({DOTA}-[X2]VYCE[dP]D[Phe(4-NH2)](Bz)LTWSC-NH2; linker 4-13 via mXylylene) is lower in pIC50: 7.10 to 8.00 for the first, 6.10 to 7.00 for the second. The first is the more potent here.

same assay, conditions: FACS binding assay, HT-29 cells, competition with tracer 3BP-2776 (10 nM, biotin-labeled), 4° C., 1 hour; read-out: pIC50 category (activity) (converted)

CC(C)C[C@@H]1NC(=O)[C@H](Cc2ccc(-c3ccccc3)cc2)NC(=O)[C@H](CC(=O)O)NC(=O)[C@H]2CCCN2C(=O)[C@H](CCC(=O)O)NC(=O)[C@@H](NC(=O)[C@H](Cc2ccc(O)cc2)NC(=O)[C@@H](NC(=O)CN2CCC(NC(=O)CN3CCN(CC(=O)O)CCN(CC(=O)O)CCN(CC(=O)O)CC3)CC2)C(C)C)CSCc2cccc(c2)CSC[C@@H](C(N)=O)NC(=O)[C@H](CO)NC(=O)[C@H](Cc2c[nH]c3ccccc23)NC(=O)[C@H]([C@@H](C)O)NC1=O [3BP-4131] ({DOTA}-[X2]VYCE[dP]D[Bip]LTWSC-NH2; linker 4-13 via mXylylene) and CC(C)C[C@@H]1NC(=O)[C@H](Cc2ccc(O)cc2)NC(=O)[C@H](CC(=O)O)NC(=O)[C@H]2CCCN2C(=O)[C@H](CCC(=O)O)NC(=O)[C@@H](NC(=O)[C@H](Cc2ccc(O)cc2)NC(=O)[C@@H](NC(=O)CN2CCC(NC(=O)CN3CCN(CC(=O)O)CCN(CC(=O)O)CCN(CC(=O)O)CC3)CC2)C(C)C)CSCc2cccc(c2)CSC[C@@H](C(N)=O)NC(=O)[C@H](CO)NC(=O)[C@H](Cc2c[nH]c3ccccc23)NC(=O)[C@H]([C@@H](C)O)NC1=O [3BP-4136] ({DOTA}-[X2]VYCE[dP]DYLTWSC-NH2; linker 4-13 via mXylylene) cannot be ordered by IC50: under 0.01 µM for the first, under 0.01 µM for the second.

First: CC(C)C[C@@H]1NC(=O)[C@H](C(c2ccccc2)c2ccccc2)NC(=O)[C@H](CC(=O)O)NC(=O)[C@H]2CCCN2C(=O)[C@H](CCC(=O)O)NC(=O)[C@@H](NC(=O)[C@H](Cc2ccc(O)cc2)NC(=O)[C@@H](NC(=O)CN2CCC(NC(=O)CN3CCN(CC(=O)O)CCN(CC(=O)O)CCN(CC(=O)O)CC3)CC2)C(C)C)CSCc2cccc(c2)CSC[C@@H](C(N)=O)NC(=O)[C@H](CO)NC(=O)[C@H](Cc2c[nH]c3ccccc23)NC(=O)[C@H]([C@@H](C)O)NC1=O [3BP-4132] ({DOTA}-[X2]VYCE[dP]D[Dip]LTWSC-NH2; linker 4-13 via mXylylene)
Second: CC(C)C[C@@H]1NC(=O)[C@H](Cc2ccc(C(C)(C)C)cc2)NC(=O)[C@H](CC(=O)O)NC(=O)[C@H]2CCCN2C(=O)[C@H](CCC(=O)O)NC(=O)[C@@H](NC(=O)[C@H](Cc2ccc(O)cc2)NC(=O)[C@@H](NC(=O)CN2CCC(NC(=O)CN3CCN(CC(=O)O)CCN(CC(=O)O)CCN(CC(=O)O)CC3)CC2)C(C)C)CSCc2cccc(c2)CSC[C@@H](C(N)=O)NC(=O)[C@H](CO)NC(=O)[C@H](Cc2c[nH]c3ccccc23)NC(=O)[C@H]([C@@H](C)O)NC1=O [3BP-4160] ({DOTA}-[X2]VYCE[dP]D[Phe(4-tBu)]LTWSC-NH2; linker 4-13 via mXylylene)
The IC50 of the first is lower: under 0.01 µM for the first, 0.01 to 0.0794 µM for the second.

First: CC(C)C[C@@H]1NC(=O)[C@H](Cc2c[nH]c3ccccc23)NC(=O)[C@H](CC(=O)O)NC(=O)[C@H]2CCCN2C(=O)[C@H](CCC(=O)O)NC(=O)[C@@H](NC(=O)[C@H](Cc2ccc(O)cc2)NC(=O)[C@@H](NC(=O)CN2CCC(NC(=O)CN3CCN(CC(=O)O)CCN(CC(=O)O)CCN(CC(=O)O)CC3)CC2)C(C)C)CSCc2cccc(n2)CSC[C@@H](C(N)=O)NC(=O)[C@H](CO)NC(=O)[C@H](Cc2c[nH]c3ccccc23)NC(=O)[C@H]([C@@H](C)O)NC1=O [3BP-4140] ({DOTA}-[X2]VYCE[dP]DWLTWSC-NH2; linker 4-13 via Pyridine(2,6-diCH2))
Second: CC(C)C[C@@H]1NC(=O)[C@H](Cc2c[nH]c3ccccc23)NC(=O)[C@H](CC(=O)O)NC(=O)[C@H]2CCCN2C(=O)[C@H](CCC(=O)O)NC(=O)[C@@H](NC(=O)[C@H](Cc2ccc(O)cc2)NC(=O)[C@@H](NC(=O)CN2CCC(NC(=O)CN3CCN(CC(=O)O)CCN(CC(=O)O)CCN(CC(=O)O)CC3)CC2)C(C)C)CSCc2cncc(c2)CSC[C@@H](C(N)=O)NC(=O)[C@H](CO)NC(=O)[C@H](Cc2c[nH]c3ccccc23)NC(=O)[C@H]([C@@H](C)O)NC1=O [3BP-4141] ({DOTA}-[X2]VYCE[dP]DWLTWSC-NH2; linker 4-13 via Pyridine(3,5-bisCH2))
The IC50 of the first is lower: 0.01 to 0.0794 µM for the first, 0.1 to 0.794 µM for the second.

First: CC(C)C[C@@H]1NC(=O)[C@H](Cc2c[nH]c3ccccc23)NC(=O)[C@H](CC(=O)O)NC(=O)[C@H]2CCCN2C(=O)[C@H](CCC(=O)O)NC(=O)[C@@H](NC(=O)[C@H](Cc2ccc(O)cc2)NC(=O)[C@@H](NC(=O)CN2CCC(NC(=O)CN3CCN(CC(=O)O)CCN(CC(=O)O)CCN(CC(=O)O)CC3)CC2)C(C)C)CSCc2cccc(c2)CSC[C@@H](C(N)=O)NC(=O)[C@H](CO)NC(=O)[C@H](Cc2c[nH]c3ncccc23)NC(=O)[C@H]([C@@H](C)O)NC1=O [3BP-4159] ({DOTA}-[X2]VYCE[dP]DWLT[Trp(7-aza)]SC-NH2; linker 4-13 via mXylylene)
Second: CC(C)C[C@@H]1NC(=O)[C@H](Cc2ccc(NC(=O)C3CCCC3)cc2)NC(=O)[C@H](CC(=O)O)NC(=O)[C@H]2CCCN2C(=O)[C@H](CCC(=O)O)NC(=O)[C@@H](NC(=O)[C@H](Cc2ccc(O)cc2)NC(=O)[C@@H](NC(=O)CN2CCC(NC(=O)CN3CCN(CC(=O)O)CCN(CC(=O)O)CCN(CC(=O)O)CC3)CC2)C(C)C)CSCc2cccc(c2)CSC[C@@H](C(N)=O)NC(=O)[C@H](CO)NC(=O)[C@H](Cc2c[nH]c3ccccc23)NC(=O)[C@H]([C@@H](C)O)NC1=O [3BP-4173] ({DOTA}-[X2]VYCE[dP]D[Phe(4-NH2)](Cyclopentanecarbonyl)LTWSC-NH2; linker 4-13 via mXylylene)
The IC50 of the first is lower: under 0.01 µM for the first, 0.01 to 0.0794 µM for the second.

For CC(C)C[C@@H]1NC(=O)[C@H](Cc2c[nH]c3ccccc23)NC(=O)[C@H](CC(=O)O)NC(=O)[C@H]2CCCN2C(=O)[C@H](CCC(=O)O)NC(=O)[C@@H]2CSCc3cccc(c3)CSC[C@@H](C(N)=O)NC(=O)[C@H](CCC(=O)NC[C@H](NC(=O)[C@@H](NC(=O)CN3CCC(NC(=O)CN4CCN(CC(=O)O)CCN(CC(=O)O)CCN(CC(=O)O)CC4)CC3)C(C)C)C(=O)N2)NC(=O)[C@H](Cc2c[nH]c3ccccc23)NC(=O)[C@H]([C@@H](C)O)NC1=O [3BP-4177] ({DOTA}-[X2]V[Dap]CE[dP]DWLTWEC-NH2; lactam 3-12; linker 4-13 via mXylylene), the IC50 was under 0.01 µM.
